{
  "source": "patent US20220118037A1",
  "about": "“METHOD FOR IMPROVING SARCOPENIA BY USING PHELLINUS LINTEUS” (GRAPE KING BIO LTD, priority 2020, published 2022)",
  "tested_on": "C2C12 cell line",
  "assay": "Dexamethasone-induced sarcopenia model in differentiated C2C12 myotubes, diameters of the myotubes (H&E stain, Image-Pro Plus)",
  "format": "cell-based, mouse",
  "conditions": "10 μM dexamethasone alone in 0.1% DMSO, 24 hours, C2C12 myotubes (negative control group)",
  "text": "Mouse skeletal myocytes (i.e., C2C12 cell line) were utilized to establish a sarcopenia model. An artificially synthetic corticosteroid, dexamethasone was utilized to establish the sarcopenia model. Dexamethasone could inhibit the immune system and thus was utilized as an anti-inflammation drug or an allergy drug. […] Thus, dexamethasone was used to induce muscular dystrophy for simulating sarcopenia in this Example. First, a growth medium [Dulbecco's modified minimal essential medium (DMEM) including 10% fetal bovine serum] was utilized to culture the C2C12 cell line under 37° C., 5% CO2, in which the start density of the C2C12 cell line was 1×10^5 to 2×10^5 cells/mL. […] The diameters of the myotubes were measured by using a commercial software (Image-Pro Plus software), and the results of statistical analysis on the diameters of the myotubes were shown in Table 1, in which the statistic method used to analyze the percentage of each items was paired sample t-test, and the symbols “#” and “*” represented significant differences compared to the blank control group and negative control group (p<0.05, n=60), respectively.",
  "note": "Marks after values point to notes of the source that are not given here.",
  "data": [
    {"smiles": "C[C@@H]1C[C@H]2[C@@H]3CCC4=CC(=O)C=C[C@]4(C)[C@@]3(F)[C@@H](O)C[C@]2(C)[C@@]1(O)C(=O)CO", "note": "[dexamethasone]", "values": [
      {"measurement": "Diameters of the myotubes", "result": "19.98 ± 6.42# μm"}
    ]}
  ]
}
